# How the values were obtained:
# [1] = Plasma stability test, rat; format: in vitro ADME; conditions: 5 μM, 37° C.
# Procedure: The pH of the plasma was checked and recorded. Note: a.
# The final concentration of solvent was 0.5%.
# The assay was performed in duplicate. […] The tubes were mixed by vortex for 5 minutes.
# SNU886 = experiment: Cytotoxicity on hepatocellular carcinoma cell line SNU886; format: cell-based
# Procedure: If not otherwise specified, IC50 values were measured by the following experimental methods:
# a) Cells were plated for 24 hours, and then the compounds acted singly. 99 μL of growth medium was supplemented per well, and then 1 μL of 200× compound was added, gently shaken to ensure uniform mixing, and then placed in a 37° C., 5% CO2 incubator.
# b) The cell plate was placed in the incubator for 72 hours.
# b) 100 μL of CTG reagent (CelltiterGlo kit) was added to each well, the plate was placed in a rapid oscillator and shaken for 2 minutes, and then placed at room temperature for 30 minutes away from light.
# The IC50 was calculated using GraphPad Prism 8 software and the IC50 (half inhibitory concentration) of the compounds was obtained using the following non-linear fitting formula: […]
# Using the same experimental methods as described above, Compounds A, B and C were further tested for cytotoxicity against different hepatocellular carcinoma (HCC) cell lines SNU354, SNU886, MHCC97H and huH-1, and the results were shown in Table 2 below: […]
# [2] = system: HuPrime model LI6643 human liver cancer; experiment: In vivo pharmacodynamics, liver cancer LI6643 PDX model (Compound A, Sorafenib; section 4.8); set-up: species or system BALB/c nude mice; conditions: for Relative tumor volume (x ± S) / T/C (%) / TGI (%) / Tumor volume (x ± S): QDx5, 2 days off, 2 weeks off, QDx5, i.p.
# Procedure: Experiment Instruction: BALB/c nude mice were subcutaneously inoculated with HuPrime® model LI6643 tumor blocks to establish a subcutaneous transplantation tumor model of human liver cancer. […] The efficacy was evaluated according to the relative tumor inhibition rate TGI (%), and the safety was evaluated according to the change in body weight and the death of the animals.
smiles,measurement,setting,value
O=[N+]([O-])c1ccc(C(OP(=O)(N2CC2)N2CC2)C(F)(F)F)cc1Oc1ccc(-c2ccc(F)cc2)c(F)c1 (racemic) [Compound A],Percentage remaining after 2 hours in plasma,[1],33.03%
same,ratio A/B,SNU886; IC50 ratio,1.66
same,ratio A/C,SNU886; IC50 ratio,0.75
same,IC50,SNU886; SNU-886,628 nM
same,Tumor volume,"[2]; 1.25 mg/kg i.p., Day 0",126.02 mm^3
same,Tumor volume,"[2]; 1.25 mg/kg i.p., Day 4",181.97 mm^3
same,Tumor volume,"[2]; 1.25 mg/kg i.p., Day 7",270.85 mm^3
same,Tumor volume,"[2]; 1.25 mg/kg i.p., Day 11",264.04 mm^3
same,Tumor volume,"[2]; 1.25 mg/kg i.p., Day 14",197.40 mm^3
same,Tumor volume,"[2]; 1.25 mg/kg i.p., Day 18",177.65 mm^3
same,Tumor volume,"[2]; 1.25 mg/kg i.p., Day 21",102.13 mm^3
same,Tumor volume,"[2]; 1.25 mg/kg i.p., Day 25",90.41 mm^3
same,Tumor volume,"[2]; 1.25 mg/kg i.p., Day 28",73.75 mm^3
same,Tumor volume,"[2]; 1.25 mg/kg i.p., Day 32",49.39 mm^3
same,Tumor volume,"[2]; 1.25 mg/kg i.p., Day 35",35.61 mm^3
same,Tumor volume,"[2]; 1.25 mg/kg i.p., Day 39",31.79 mm^3
same,Tumor volume,"[2]; 1.25 mg/kg i.p., Day 42",25.59 mm^3
same,Tumor volume,"[2]; 1.25 mg/kg i.p., Day 46",19.34 mm^3
same,Tumor volume,"[2]; 1.25 mg/kg i.p., Day 49",12.51 mm^3
same,Tumor volume,"[2]; 1.25 mg/kg i.p., Day 53",9.04 mm^3
same,Relative tumor volume (x ± S),"[2]; 1.25 mg/kg, Day 35",0.27 ± 0.14
same,T/C (%),"[2]; 1.25 mg/kg, Day 35",1.89%
same,TGI (%),"[2]; 1.25 mg/kg, Day 35",98.11%
same,Tumor volume (x ± S),"[2]; 1.25 mg/kg, Day 35",35.61 ± 18.63
same,Tumor volume,"[2]; 2.5 mg/kg i.p., Day 0",125.92 mm^3
same,Tumor volume,"[2]; 2.5 mg/kg i.p., Day 4",199.12 mm^3
same,Tumor volume,"[2]; 2.5 mg/kg i.p., Day 7",278.32 mm^3
same,Tumor volume,"[2]; 2.5 mg/kg i.p., Day 11",191.74 mm^3
same,Tumor volume,"[2]; 2.5 mg/kg i.p., Day 14",167.14 mm^3
same,Tumor volume,"[2]; 2.5 mg/kg i.p., Day 18",154.33 mm^3
same,Tumor volume,"[2]; 2.5 mg/kg i.p., Day 21",100.94 mm^3
same,Tumor volume,"[2]; 2.5 mg/kg i.p., Day 25",103.28 mm^3
same,Tumor volume,"[2]; 2.5 mg/kg i.p., Day 28",93.12 mm^3
same,Tumor volume,"[2]; 2.5 mg/kg i.p., Day 32",74.85 mm^3
same,Tumor volume,"[2]; 2.5 mg/kg i.p., Day 35",56.62 mm^3
same,Tumor volume,"[2]; 2.5 mg/kg i.p., Day 39",39.85 mm^3
same,Tumor volume,"[2]; 2.5 mg/kg i.p., Day 42",27.34 mm^3
same,Tumor volume,"[2]; 2.5 mg/kg i.p., Day 46",14.83 mm^3
same,Tumor volume,"[2]; 2.5 mg/kg i.p., Day 49",12.00 mm^3
same,Tumor volume,"[2]; 2.5 mg/kg i.p., Day 53",12.86 mm^3
same,Relative tumor volume (x ± S),"[2]; 2.5 mg/kg, Day 35",0.45 ± 0.07
same,T/C (%),"[2]; 2.5 mg/kg, Day 35",3.19%
same,TGI (%),"[2]; 2.5 mg/kg, Day 35",96.81%
same,Tumor volume (x ± S),"[2]; 2.5 mg/kg, Day 35",56.62 ± 9.62
same,Tumor volume,"[2]; 5 mg/kg i.p., Day 0",126.93 mm^3
same,Tumor volume,"[2]; 5 mg/kg i.p., Day 4",178.97 mm^3
same,Tumor volume,"[2]; 5 mg/kg i.p., Day 7",214.95 mm^3
same,Tumor volume,"[2]; 5 mg/kg i.p., Day 11",132.13 mm^3
same,Tumor volume,"[2]; 5 mg/kg i.p., Day 14",63.74 mm^3
same,Tumor volume,"[2]; 5 mg/kg i.p., Day 18",60.36 mm^3
same,Tumor volume,"[2]; 5 mg/kg i.p., Day 21",40.93 mm^3
same,Tumor volume,"[2]; 5 mg/kg i.p., Day 25",24.91 mm^3
same,Tumor volume,"[2]; 5 mg/kg i.p., Day 28",21.48 mm^3
same,Tumor volume,"[2]; 5 mg/kg i.p., Day 32",8.71 mm^3
same,Tumor volume,"[2]; 5 mg/kg i.p., Day 35",7.12 mm^3
same,Tumor volume,"[2]; 5 mg/kg i.p., Day 39",6.77 mm^3
same,Tumor volume,"[2]; 5 mg/kg i.p., Day 42",5.57 mm^3
same,Tumor volume,"[2]; 5 mg/kg i.p., Day 46",4.27 mm^3
same,Tumor volume,"[2]; 5 mg/kg i.p., Day 49",4.12 mm^3
same,Tumor volume,"[2]; 5 mg/kg i.p., Day 53",3.81 mm^3
same,Relative tumor volume (x ± S),"[2]; 5 mg/kg, Day 35",0.05 ± 0.05
same,T/C (%),"[2]; 5 mg/kg, Day 35",0.34%
same,TGI (%),"[2]; 5 mg/kg, Day 35",99.66%
same,Tumor volume (x ± S),"[2]; 5 mg/kg, Day 35",7.12 ± 7.12
same,Tumor volume,"[2]; 10 mg/kg i.v., Day 0",126.11 mm^3
same,Tumor volume,"[2]; 10 mg/kg i.v., Day 4",160.85 mm^3
same,Tumor volume,"[2]; 10 mg/kg i.v., Day 7",216.99 mm^3
same,Tumor volume,"[2]; 10 mg/kg i.v., Day 11",94.21 mm^3
same,Tumor volume,"[2]; 10 mg/kg i.v., Day 14",72.94 mm^3
same,Tumor volume,"[2]; 10 mg/kg i.v., Day 18",59.48 mm^3
same,Tumor volume,"[2]; 10 mg/kg i.v., Day 21",25.80 mm^3
same,Tumor volume,"[2]; 10 mg/kg i.v., Day 25",21.28 mm^3
same,Tumor volume,"[2]; 10 mg/kg i.v., Day 28",10.93 mm^3

# — patent US20260159536A1, “AKR1C3-ACTIVATED DNA ALKYLATING AGENT, AND MEDICAL APPLICATION THEREOF” (ASCENTAWITS PHARMACEUTICALS, LTD., priority 2021, published 2026)
